Patent US4737496A, “1,3,4,16b-tetra hydro-2H,10H-indolo[2,1-c]pyrazino-[1,2-a][1,4]benzodiazepines useful as serotonin-2 receptor antagonists” (Ciba-Geigy Corporation, priority 1986, dated 1988)

How the values were obtained:
serotonin-2 receptor [1] = molecular target: T1, serotonin-2 receptor (Rattus norvegicus, UniProt P14842); assay: 5-hydroxytryptophane-induced head twitch test; format: in vivo; parameters: membrane preparations of frontal/parietal cortex from male Sprague-Dawley rats; from tissue; host or cells: frontal/parietal cortex membranes, male Sprague-Dawley rat; details: po, 5-HTP induced head twitch, read-out: effective dose in the head twitch test
Experimental: The head twitch test for assessing central nervous system serotonin-2 receptor antagonism in the rat is described in Neuropharmacology 16, 663 (1977) and in J. Pharmacol. Exp. Ther. 228, 133 (1984). The test is carried out as follows:
Male Wistar rats (120-180 g) are fasted for 18 hours prior to testing but allowed water ad libitum. All animals are pretreated with the peripheral decarboxylase inhibitor alpha-methyl-DOPA hydrazine (carbidopa, 25 mg/kg i.p., 4.0 ml/kg) followed 30 minutes later by 5-hydroxy-tryptophane (5-HTP 100 mg/kg s.c., 4.0 ml/kg). Ninety minutes after receiving 5-HTP, the rats are placed individually in plexiglass observation cages and the frequency of head twitches for each animal is counted over a 10 minute observation period. The test compound or vehicle is administered at either 0.5 hour at 1.0 ml/kg i.p. or at 1, 2 or 4 hours at 10 ml/kg p.o. prior to the observation period. ED50 values are determined by probit analysis.

serotonin-2 receptor [2] = molecular target: T1, serotonin-2 receptor; assay: in vivo displacement of 3H-spiperone binding in rat brain; parameters: serotonin-2 receptors in rat brain; from tissue; host or cells: rat brain, in vivo; details: ip
Experimental: In vivo, the compounds according to the present application displace the binding of ^3 H-spiperone to serotonin-2 receptors in rat brain. Illustrative of the invention, the compound of example 1 displaces the binding of ^3 H-spiperone with an ED50 value of about 2 mg/Kg i.p.

serotonin-2 receptor [3] = molecular target: T1, serotonin-2 receptor; assay: biochemical
Experimental: The serotonin-2 receptor (also named 5-hydroxytryptamine-2 or 5HT-2 receptor) binding properties are determined in vitro by measuring the ability of said compounds to inhibit the specific binding of ^3 H-ketanserin, in membrane preparations of frontal/parietal cortex from male Sprague-Dawley rats essentially as described by Battaglia et al. in Life Sciences 33, 2011 (1983). IC50 values, representing the concentration of compound required to displace 50% of ^3 H-ketanserin, are determined by log-logit analysis of the specific binding data.

T1 sequence (P14842 whole entry): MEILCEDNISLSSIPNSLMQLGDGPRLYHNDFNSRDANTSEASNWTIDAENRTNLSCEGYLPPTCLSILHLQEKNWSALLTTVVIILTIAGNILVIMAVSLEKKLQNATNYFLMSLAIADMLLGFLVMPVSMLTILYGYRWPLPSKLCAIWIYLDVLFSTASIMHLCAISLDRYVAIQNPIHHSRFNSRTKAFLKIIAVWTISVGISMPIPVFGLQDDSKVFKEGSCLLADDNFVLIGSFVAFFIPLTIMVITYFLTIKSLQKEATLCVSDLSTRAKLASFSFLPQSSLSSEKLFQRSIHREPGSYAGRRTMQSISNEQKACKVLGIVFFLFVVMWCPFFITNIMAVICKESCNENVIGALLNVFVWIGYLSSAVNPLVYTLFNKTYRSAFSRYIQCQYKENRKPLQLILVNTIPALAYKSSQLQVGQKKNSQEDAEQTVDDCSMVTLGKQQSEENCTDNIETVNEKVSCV

COC(=O)c1c2n(c3ccccc13)Cc1ccccc1N1CCN(C)CC21 (stereo not drawn) [Example 1, methyl 1,3,4,16b-tetrahydro-2-methyl-2H,10H-indolo[2,1-c]pyrazino[1,2-a][1,4]benzodiazepine-16-carboxylate]
ED50 (serotonin-2 receptor [1]): ~3 mg/kg
ED50 (serotonin-2 receptor [2]): ~2 mg/kg
IC50 (serotonin-2 receptor [3]): ~4 nM
